Source: patent US8785488B2 (Exelixis Patent Company LLC, priority 2009, dated 2014)

What follows are compounds tested against T1, human TGR5 (h-TGR5) (Homo sapiens, UniProt Q8TDU6) (assay: TGR5/CRE-Luciferiase Assay (HEK 293 hTGR5/CRE-Luc cells)). Conditions: h-TGR5 CRE-Luc EC50, Table 1; read-out: CRE-Luc (EC50).
T1 construct: expressed in transfected cells
T1 sequence (Q8TDU6 1-330): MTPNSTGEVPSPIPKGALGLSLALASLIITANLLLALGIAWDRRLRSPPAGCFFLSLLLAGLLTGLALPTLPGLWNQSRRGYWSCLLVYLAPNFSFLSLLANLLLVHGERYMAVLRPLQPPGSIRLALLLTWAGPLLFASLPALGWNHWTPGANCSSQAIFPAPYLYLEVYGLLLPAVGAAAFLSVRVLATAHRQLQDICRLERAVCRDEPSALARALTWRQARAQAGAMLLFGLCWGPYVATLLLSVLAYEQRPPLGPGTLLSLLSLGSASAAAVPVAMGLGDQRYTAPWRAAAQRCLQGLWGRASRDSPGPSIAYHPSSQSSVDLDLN
Format: cell-based
Protocol: Compounds were serially diluted in DMEM containing 5% DMSO and 5 μL of compound or media alone was transferred to each well and plates were incubated for 6 hours. Following incubation, 30 μL of lysis/luciferase buffer was added to each well. The luciferase activity was then measured on the EnVision™ plate reader and the dose response data was analyzed using ActivityBase.
In the following tables, EC50 values determined according to the TGR5 cAMP Assay described herein (cAMP); EC50 values determined according to the TGR5/CRE-Luciferiase Assay described herein (CRE-Luc). […] The following compounds in Tables 1 and 2 were made by using procedures described in the above Schemes and Examples, and, where applicable, by making any necessary substitutions of known materials that one skilled in the art would ordinarily understand how to do.

| Compound | EC50 |
| --- | --- |
| CC(C)(C)OC(=O)N1CCC(NCc2ncc(C(C)(C)c3ccc(Cl)c(Cl)c3)n2-c2ccc(F)cc2)CC1 | 1000 to 10000 nM |
| 2-chloro-5-{1-[2-{(2-chloro-4- fluorophenyl)methyl]thio}-1-(4-fluorophenyl)- 1H-imidazol-5-yl]-1- methylethyl}benzenesulfonamide | 100 to 1000 nM |
| CC(C)(C)OC(=O)N1CCC(OCc2ncc(C(C)(C)c3ccc(Cl)c(Cl)c3)n2-c2ccc(F)cc2)CC1 [1,1-dimethylethyl 4-[({5-[1-(3,4-dichlorophenyl)-1-methylethyl]-1-(4-fluorophenyl)-1H-imidazol-2-yl}methyl)oxy]piperidine-1-carboxylate] | 1000 to 10000 nM |
| CC(C)(c1ccc(Cl)c(Cl)c1)c1cnc(S(=O)(=O)Cc2c(F)cccc2Cl)n1-c1ccc(F)cc1Cl [1-(2-chloro-4-fluorophenyl)-2-{[(2-chloro-6-fluorophenyl)methyl]sulfonyl}-5-[1-(3,4-dichlorophenyl)-1-methylethyl]-1H-imidazole] | 1000 to 10000 nM |
| CC1CCc2cc(F)ccc2N1S(=O)(=O)c1ncc(C(C)(C)c2ccc(Cl)c(Cl)c2)n1-c1ccc(F)cc1 (centres unmarked) [1-({5-[1-(3,4-dichlorophenyl)-1-methylethyl]-1-(4-fluorophenyl)-1H-imidazol-2-yl}sulfonyl)-6-fluoro-2-methyl-1,2,3,4-tetrahydroquinoline] | 1000 to 10000 nM |
| CN1CCN(c2ccc(CSc3ncc(C(C)(C)c4ccc(Cl)c(Cl)c4)n3-c3ccc(F)cc3)cc2Cl)CC1 [1-{2-chloro-4-[({5-[1-(3,4-dichlorophenyl)-1-methylethyl]-1-(4-fluorophenyl)-1H-imidazol-2-yl}thio)methyl]phenyl}-4-methylpiperazine] | 1000 to 10000 nM |
| CC(=O)c1ccc(OCc2ncc(C(C)(C)c3ccc(Cl)c(Cl)c3)n2-c2ccc(F)cc2)c(Cl)c1 [1-{3-chloro-4-[({5-[1-(3,4-dichlorophenyl)-1-methylethyl]-1-(4-fluorophenyl)-1H-imidazol-2-yl}methyl)oxy]phenyl}ethanone] | 1000 to 10000 nM |
| CN1CCN(c2cc(CSc3ncc(C(C)(C)c4ccc(Cl)c(Cl)c4)n3-c3ccc(F)cc3)ccc2F)CC1 [1-{5-[({5-[1-(3,4-dichlorophenyl)-1-methylethyl]-1-(4-fluorophenyl)-1H-imidazol-2-yl}thio)methyl]-2-fluorophenyl}-4-methylpiperazine] | 1000 to 10000 nM |
| CN(C)CCn1c(C(C)(C)c2ccc(Cl)c(Cl)c2)cnc1SCc1c(F)cccc1Cl [2-(2-{[(2-chloro-6-fluorophenyl)methyl]thio}-5-[1-(3,4-dichlorophenyl)-1-methylethyl]-1H-imidazol-1-yl)-N,N-dimethylethanamine] | 1000 to 10000 nM |
| CC(C)(c1ccc(Cl)c(Cl)c1)c1cnc(SCc2c(F)cccc2Cl)n1CCO [2-(2-{[(2-chloro-6-fluorophenyl)methyl]thio}-5-[1-(3,4-dichlorophenyl)-1-methylethyl]-1H-imidazol-1-yl)ethanol] | 100 to 1000 nM |
| CC(C)(Oc1cc(F)ccc1CSc1ncc(C(C)(C)c2ccc(Cl)c(Cl)c2)n1-c1ccc(F)cc1)C(=O)O [2-({2-[({5-[1-(3,4-dichlorophenyl)-1-methylethyl]-1-(4-fluorophenyl)-1H-imidazol-2-yl}thio)methyl]-5-fluorophenyl}oxy)-2-methylpropanoic acid] | 1000 to 10000 nM |
| CCN(CC)CCOc1ccc(CSc2ncc(C(C)(C)c3ccc(Cl)c(Cl)c3)n2-c2ccc(F)cc2)cc1-c1nnn[nH]1 [2-({4-[({5-[1-(3,4-dichlorophenyl)-1-methylethyl]-1-(4-fluorophenyl)-1H-imidazol-2-yl}thio)methyl]-2-(1H-tetrazol-5-yl)phenyl}oxy)-N,N-diethylethanamine] | 100 to 1000 nM |
| CC(C)(Oc1cc(CSc2ncc(C(C)(C)c3ccc(Cl)c(Cl)c3)n2-c2ccc(F)cc2)ccc1F)C(=O)O [2-({5-[({5-[1-(3,4-dichlorophenyl)-1-methylethyl]-1-(4-fluorophenyl)-1H-imidazol-2-yl}thio)methyl]-2-fluorophenyl}oxy)-2-methylpropanoic acid] | 100 to 1000 nM |

Next, values leading:

| EC50 | Compound |
| --- | --- |
| < 100 nM | COc1c(Cl)cc(C(C)(C)c2cnc(SCc3ccc(F)cc3Cl)n2-c2ccc(F)cc2)cc1Cl |
| 100 to 1000 nM | CC(C)(C)OC(=O)N1CCC(CSc2ncc(C(C)(C)c3ccc(Cl)c(Cl)c3)n2-c2ccc(F)cc2)C1 (centres unmarked) [1,1-dimethylethyl 3-[({5-[1-(3,4-dichlorophenyl)-1-methylethyl]-1-(4-fluorophenyl)-1H-imidazol-2-yl}thio)methyl]pyrrolidine-1-carboxylate] |
| 100 to 1000 nM | CC(C)(C)OC(=O)N1CCC(CSc2ncc(C(C)(C)c3ccc(F)c(F)c3)n2-c2ccc(F)cc2)CC1 [1,1-dimethylethyl 4-[({5-[1-(3,4-difluorophenyl)-1-methylethyl]-1-(4-fluorophenyl)-1H-imidazol-2-yl}thio)methyl]piperidine-1-carboxylate] |
| 100 to 1000 nM | CC(C)(c1ccc(Cl)c(Cl)c1)c1cnc(SCc2c(F)cccc2Cl)n1-c1ccc(F)cc1Cl [1-(2-chloro-4-fluorophenyl)-2-{[(2-chloro-6-fluorophenyl)methyl]thio}-5-[1-(3,4-dichlorophenyl)-1-methylethyl]-1H-imidazole] |
| < 100 nM | CC(C)(c1ccc(Cl)c(Cl)c1)c1cnc(SCc2c(F)cccc2Cl)n1-c1ccc(F)c(Cl)c1 [1-(3-chloro-4-fluorophenyl)-2-{[(2-chloro-6-fluorophenyl)methyl]thio}-5-[1-(3,4-dichlorophenyl)-1-methylethyl]-1H-imidazole] |
| 100 to 1000 nM | CC(C)(c1ccc(Cl)c(Cl)c1)c1cnc(SCc2c(F)cccc2Cl)n1-c1ccc(Cl)cc1F [1-(4-chloro-2-fluorophenyl)-2-{[(2-chloro-6-fluorophenyl)methyl]thio}-5-[1-(3,4-dichlorophenyl)-1-methylethyl]-1H-imidazole] |
| 100 to 1000 nM | CC(C)(c1ccc(Cl)c(Cl)c1)c1cnc(SCc2c(F)cccc2Cl)n1-c1ccc(Cl)c(F)c1 [1-(4-chloro-3-fluorophenyl)-2-{[(2-chloro-6-fluorophenyl)methyl]thio}-5-[1-(3,4-dichlorophenyl)-1-methylethyl]-1H-imidazole] |
| 100 to 1000 nM | CC(C)(O)COc1cc(F)ccc1CSc1ncc(C(C)(C)c2ccc(Cl)c(Cl)c2)n1-c1ccc(F)cc1 [1-({2-[({5-[1-(3,4-dichlorophenyl)-1-methylethyl]-1-(4-fluorophenyl)-1H-imidazol-2-yl}thio)methyl]-5-fluorophenyl}oxy)-2-methylpropan-2-ol] |
| 100 to 1000 nM | CC(C)(O)COc1cc(CSc2ncc(C(C)(C)c3ccc(Cl)c(Cl)c3)n2-c2ccc(F)cc2)ccc1F [1-({5-[({5-[1-(3,4-dichlorophenyl)-1-methylethyl]-1-(4-fluorophenyl)-1H-imidazol-2-yl}thio)methyl]-2-fluorophenyl}oxy)-2-methylpropan-2-ol] |
| < 100 nM | COc1ccc(C(C)(C)c2cnc(CNCc3c(F)cccc3Cl)n2-c2ccc(F)cc2)cc1OC [1-[5-{1-[3,4-bis(methyloxy)phenyl]-1-methylethyl}-1-(4-fluorophenyl)-1H-imidazol-2-yl]-N-[(2-chloro-6-fluorophenyl)methyl]methanamine] |
| < 100 nM | COc1ccc(C(C)(C)c2cnc(CNCc3ccc(Cl)c(F)c3)n2-c2ccc(F)cc2)cc1OC [1-[5-{1-[3,4-bis(methyloxy)phenyl]-1-methylethyl}-1-(4-fluorophenyl)-1H-imidazol-2-yl]-N-[(4-chloro-3-fluorophenyl)methyl]methanamine] |
| 100 to 1000 nM | CC(C)(O)COc1ccc(C(C)(C)c2cnc(SCc3ccc(F)cc3Cl)n2-c2ccc(F)cc2)cc1Cl [1-[(2-chloro-4-{1-[2-{[(2-chloro-4-fluorophenyl)methyl]thio}-1-(4-fluorophenyl)-1H-imidazol-5-yl]-1-methylethyl}phenyl)oxy]-2-methylpropan-2-ol] |
| 100 to 1000 nM | CC(C)(O)COc1cc(C(C)(C)c2cnc(SCc3c(F)cccc3Cl)n2-c2ccc(F)cc2)ccc1Cl [1-[(2-chloro-5-{1-[2-{[(2-chloro-6-fluorophenyl)methyl]thio}-1-(4-fluorophenyl)-1H-imidazol-5-yl]-1-methylethyl}phenyl)oxy]-2-methylpropan-2-ol] |
| 100 to 1000 nM | CN1CCN(c2ccc(CSc3ncc(C(C)(C)c4ccc(Cl)c(Cl)c4)n3-c3ccc(F)cc3)cc2F)CC1 [1-{4-[({5-[1-(3,4-dichlorophenyl)-1-methylethyl]-1-(4-fluorophenyl)-1H-imidazol-2-yl}thio)methyl]-2-fluorophenyl}-4-methylpiperazine] |
| 100 to 1000 nM | CC(C)(c1ccc(Cl)c(Cl)c1)c1cnc(SCc2ccc(F)c(NC(=N)N)c2)n1-c1ccc(F)cc1 [1-{5-[({5-[1-(3,4-dichlorophenyl)-1-methylethyl]-1-(4-fluorophenyl)-1H-imidazol-2-yl}thio)methyl]-2-fluorophenyl}guanidine] |
| 100 to 1000 nM | CC(C)(O)c1ccc(C(C)(C)c2cnc(SCc3ccc(F)cc3Cl)n2-c2ccc(F)cc2)cc1Cl [2-(2-chloro-4-{1-[2-{[(2-chloro-4-fluorophenyl)methyl]thio}-1-(4-fluorophenyl)-1H-imidazol-5-yl]-1-methylethyl}phenyl)propan-2-ol] |
